# In patent US11459323B2, “Monocyclic β-lactam compound for treating bacterial infection” (MEDSHINE DISCOVERY INC., priority 2018, dated 2022):
# Read-outs that look alike come from different tables or passages of the source. Marks after values point to notes of the source that are not given here.
# Key:
# [1] = system: K. pneumoniae ATCC BAA-205 (TEM-1/SHV-1/SHV-12); assay: MIC by micro-liquid dilution method (CLSI); assay type: cell-based, Klebsiella pneumonia; conditions: Klebsiella pneumoniae, ATCCBAA205; K. pneumoniae ATCCBAA-205; read-out: MIC
# [2] = system: P. aeruginosa ATCC 35151; assay: MIC by micro-liquid dilution method (CLSI); assay type: cell-based; conditions: Pseudomonas aeruginosa
# [3] = system: K. pneumoniae ATCC BAA-1705 (KPC-2); assay: MIC by micro-liquid dilution method (CLSI); assay type: cell-based, Klebsiella pneumonia; conditions: Klebsiella pneumoniae, ATCCBAA1705; K. pneumoniae ATCCBAA-1705; read-out: MIC
# [4] = system: K. pneumoniae ATCC BAA-2470 (NDM-1); assay: MIC by micro-liquid dilution method (CLSI); assay type: cell-based, Klebsiella pneumonia; conditions: Klebsiella pneumoniae, ATCCBAA2470; K. pneumoniae ATCCBAA-2470; read-out: MIC
# [5] = system: E. coli MG1655Δtol C; assay: MIC by micro-liquid dilution method (CLSI); assay type: cell-based; conditions: Escherichia coli
# From the text: (§1) Three strains of Klebsiella pneumonia, K. pneumoniae ATCC BAA-205 (TEM-1/SHV-1/SHV-12), K. pneumoniae ATCC BAA-1705 (KPC-2), K. pneumoniae ATCC BAA-2470 (NDM-1); three strains of Pseudomonas aeruginosa, P. aeruginosa NCTC13437 (VIM-10; VEB-1), P. aeruginosa PA 14 and P. aeruginosa ATCC 35151; four strains of Escherichia coli, E. coli NCTC 13476 (IMP-1 type), E. coli ATCC BAA-2523 (OXA-48), E. coli MG1655Δtol C, E. coli ATCC 25922; one strain of Acinetobacter baumannii, A. baumannii ATCC 17978 and one strain of Staphylococcus aureus, S. aureus NRS384 were used to determine the minimum inhibitory concentration (MIC) of the compounds by micro-liquid dilution method according to the Institute of Clinical and Laboratory Standard (CLSI) requirements.
# [6] = system: E. coli ATCC BAA-2523 (OXA-48); assay: MIC by micro-liquid dilution method (CLSI); assay type: cell-based; conditions: Escherichia coli, ATCCBAA2523
# From the text: as §1
# [7] = system: P. aeruginosa PA 14; assay: MIC by micro-liquid dilution method (CLSI); assay type: cell-based; conditions: Pseudomonas aeruginosa, PA14; P. aeruginosa PA 14; read-out: MIC
# From the text: as §1
# [8] = system: A. baumannii ATCC 17978; assay: MIC by micro-liquid dilution method (CLSI); assay type: cell-based; conditions: Acinetobacter baumannii; A. baumannii ATCC17978; read-out: MIC
# [9] = system: Acinetobacter baumannii ATCC-BAA-1792; assay: MIC on Acinetobacter baumannii strains; assay type: cell-based; conditions: ATCCBAA1792, ATCC-BAA-1792, read-out: MIC
# From the text: (§2) Twelve strains of Acinetobacter baumannii, A. baumannii ATCC 17978 (ATCC-BAA-1605, ATCC-BAA-1789, ATCC-BAA-1790, ATCC-BAA-1791, ATCC-BAA-1792, ATCC-BAA-1793, ATCC-BAA-1794, ATCC-BAA-1795, ATCC-BAA-1799, ATCC-BAA-1800, ATCC 19606, ATCC 17978) were used to determine the minimum inhibitory concentration (MIC) of the compounds by micro-liquid dilution method according to the Institute of Clinical and Laboratory Standard (CLSI) requirements.
# [10] = system: Acinetobacter baumannii ATCC 17978; assay: MIC on Acinetobacter baumannii strains; assay type: cell-based; conditions: ATCC17978
# From the text: as §2
# [11] = system: Acinetobacter baumannii ATCC 19606; assay: MIC on Acinetobacter baumannii strains; assay type: cell-based; conditions: ATCC19606
# From the text: as §2
# [12] = system: Acinetobacter baumannii ATCC-BAA-1799; assay: MIC on Acinetobacter baumannii strains; assay type: cell-based; conditions: ATCCBAA1799, ATCC-BAA-1799, read-out: MIC
# From the text: as §2
# [13] = system: Acinetobacter baumannii ATCC-BAA-1795; assay: MIC on Acinetobacter baumannii strains; assay type: cell-based; conditions: ATCCBAA1795
# From the text: as §2
# [14] = system: Acinetobacter baumannii ATCC-BAA-1789; assay: MIC on Acinetobacter baumannii strains; assay type: cell-based; conditions: ATCCBAA1789
# From the text: as §2
# [15] = system: Acinetobacter baumannii ATCC-BAA-1605; assay: MIC on Acinetobacter baumannii strains; assay type: cell-based; conditions: ATCCBAA1605, ATCC-BAA-1605, read-out: MIC
# From the text: as §2
# [16] = system: Acinetobacter baumannii ATCC-BAA-1794; assay: MIC on Acinetobacter baumannii strains; assay type: cell-based; conditions: ATCCBAA1794, ATCC-BAA-1794, read-out: MIC
# From the text: as §2
# [17] = system: Acinetobacter baumannii ATCC-BAA-1790; assay: MIC on Acinetobacter baumannii strains; assay type: cell-based; conditions: ATCCBAA1790, ATCC-BAA-1790, read-out: MIC
# From the text: as §2
# [18] = system: Acinetobacter baumannii ATCC-BAA-1791; assay: MIC on Acinetobacter baumannii strains; assay type: cell-based; conditions: ATCCBAA1791
# From the text: as §2
# [19] = system: Acinetobacter baumannii ATCC-BAA-1800; assay: MIC on Acinetobacter baumannii strains; assay type: cell-based
# From the text: as §2
# [20] = system: Acinetobacter baumannii ATCC-BAA-1793; assay: MIC on Acinetobacter baumannii strains; assay type: cell-based
# From the text: as §2
# [21] = system: E. coli ATCC 25922; assay: MIC by micro-liquid dilution method (CLSI); assay type: cell-based; conditions: Escherichia coli
# [22] = system: E. coli NCTC 13476 (IMP-1 type); assay: MIC by micro-liquid dilution method (CLSI); assay type: cell-based; conditions: Escherichia coli; E. coli NCTC13476; read-out: MIC
# From the text: as §1
# [23] = system: Pseudomonas aeruginosa PA14; assay: Lungs of immunosuppressed mice infected with Pseudomonas aeruginosa (2), lung bacterial load; assay type: in vivo; conditions: 24 hours after infection, total dosage 60 mg/kg, day, ip at 2 h, 4 h, 6 h, 8 h
# Procedure: Pseudomonas aeruginosa PA14. 60 mice were intraperitoneally injected with 150 mg/kg cyclophosphamide on day 1 and day 4 to give immunosuppressed mice. […] [table] The mice were injected with 50 μL of bacterial solution (2×10^3 CFU) through the airway. 2 hours after the infection, 4 mice in the model group was sacrificed by removing cervical vertebra. Two hours after infection, the drugs were administered by groups, and the mice were administered intraperitoneally once at 2 hours, 4 hours, 6 hours, and 8 hours, a total of 4 times. Mice of each group were sacrificed by removing cervical vertebra 24 hours after infection, lung and kidney tissues were taken aseptically and put into a sterilized tissue homogenate tube, weighed, and an appropriate amount of normal saline (NS) was added, the mixture was homogenized by a homogenizer for 1 min, the lung tissues of the model group were diluted 10^4, 10^5, 10^6 times, the lung tissues of each administration group were diluted 10, 100 times, the kidney tissues of the model group were diluted 10^2, 10^3, 10^4 times, and the lung tissues of each administration group were diluted 10 times, the obtained mixtures were coated on TSA plates using spiral coater, then incubated at 37° C. overnight, and the CFU was counted with a colony counter. Graphpad Prism mapping software was used to make scatter plots of lung tissue CFU. SPSS19.0 software was used to count CFU and average body weight, and analysis of variance was used to analyze differences between groups.
# [24] = system: Pseudomonas aeruginosa PA14; assay: Lungs of immunosuppressed mice infected with Pseudomonas aeruginosa (1), lung bacterial load; assay type: in vivo; conditions: 24 hours after infection, day, ip at 2 h, 4 h, 6 h, 8 h
# Procedure: Pseudomonas aeruginosa PA14. 64 mice were intraperitoneally injected with 150 mg/kg cyclophosphamide on the first day and the fourth day to give immunosuppressed mice. […] [table] The mice were injected with 50 μL of bacterial solution (2×10^3 CFU) through the airway. 2 hours after the infection, 4 mice in the model group was sacrificed by removing cervical vertebra. Two hours after infection, the drugs were administered by groups, and the mice were administered intraperitoneally once at 2 hours, 4 hours, 6 hours, and 8 hours, a total of 4 times. Mice of each group were sacrificed by removing cervical vertebra 24 hours after infection, lung and kidney tissues were taken aseptically and put into sterilized tissue homogenate tubes, weighed, and an appropriate amount of normal saline (NS) was added, the mixture was homogenized by a homogenizer for 1 min, the lung tissues of the model group were diluted 10^4, 10^5, 10^6 times, the lung tissues of each administration group were diluted 10, 100 times, the kidney tissues of the model group were diluted 10^2, […], 10^4 times, and the lung tissues of each administration group were diluted 10 times, the obtained mixtures were coated on TSA plates using spiral coater, then incubated at 37° C. overnight, and the CFU was counted with a colony counter. Graphpad Prism mapping software was used to make scatter plots of lung tissue CFU. SPSS19.0 software was used to count CFU and average body weight, and analysis of variance was used to analyze differences between groups.
# [25] = P. aeruginosa ATCC35151, read-out: MIC
# [26] = E. coli ATCCBAA-2523, read-out: MIC
# [27] = ATCCBAA1800, ATCC-BAA-1800, read-out: MIC
# [28] = ATCCBAA1793, ATCC-BAA-1793, read-out: MIC
# [29] = E. coli ATCC25922, read-out: MIC
SMILES,MIC [1] [µg/mL],"MIC [2, 25] [µg/mL]",MIC [3] [µg/mL],MIC [4] [µg/mL],MIC [5] [µg/mL],"MIC [6, 26] [µg/mL]",MIC [7] [µg/mL],MIC [8] [µg/mL],MIC [9] [µg/mL],MIC [10] [µg/mL],MIC [11] [µg/mL],MIC [12] [µg/mL],MIC [13] [µg/mL],MIC [14] [µg/mL],MIC [15] [µg/mL],MIC [16] [µg/mL],MIC [17] [µg/mL],MIC [18] [µg/mL],"MIC [19, 27] [µg/mL]","MIC [20, 28] [µg/mL]",further results
CC1(C)[C@H](NC(=O)/C(=N\OCCOc2ccc3c(c2)CCN(C(=N)N)C3)c2csc(N)n2)C(=O)N1OS(=O)(=O)O [Compound 3],8,0.0625,4,2,≤ 0.0039,0.25,4,2,16,4,8,16,8,16,16,8,16,16,8,8,"MIC [21, 29]: 0.25 µg/mL"
CC1(C)[C@H](NC(=O)/C(=N\OCCOc2ccc3c(c2)CCN(C(=N)NCCCN)C3)c2csc(N)n2)C(=O)N1OS(=O)(=O)O [Compound 4],8,,1,0.5,≤ 0.125,,1,0.5,4,0.5,8,4,4,4,8,4,4,2,8,4,MIC ([2]; ATCC35151): ≤ 0.125 µg/mL; MIC [6]: ≤ 0.125 µg/mL; MIC [22]: 0.25 µg/mL; MIC ([21]; ATCC25922): ≤ 0.125 µg/mL
CC1(C)[C@H](NC(=O)/C(=N\OCCOc2ccc3c(c2)CC[N+](C)(CCCN)C3)c2csc(N)n2)C(=O)N1OS(=O)(=O)[O-] (stereo partly drawn) [Compound 5],,,,,,,,,16,1,16,16,16,8,16,16,8,2,16,16,
CC1(C)[C@H](NC(=O)/C(=N\OCCOc2ccc3c(c2)CCN(CCCN)C3)c2csc(N)n2)C(=O)N1OS(=O)(=O)O [Compound 6],16,0.5,4,4,≤ 0.125,0.25,16,4,8,2,8,8,8,8,16,8,8,4,8,8,"MIC [22]: 1 µg/mL; MIC [21, 29]: 0.5 µg/mL"
CC1(C)[C@H](NC(=O)/C(=N\OCCOc2ccc3c(c2)CCN(CCCNC(=N)N)C3)c2csc(N)n2)C(=O)N1OS(=O)(=O)O [Compound 7],8,0.5,4,2,≤ 0.125,0.25,16,1,8,2,8,8,4,8,8,4,8,2,4,4,"MIC [22]: 1 µg/mL; MIC [21, 29]: 0.5 µg/mL"
"CC1(C)[C@H](NC(=O)/C(=N\O[C@@H](COc2ccc(C(=N)N[C@@H]3CCCNC3)cc2)C(=O)O)c2csc(N)n2)C(=O)N1OS(=O)(=O)O [I-g, reference compound]",,,,,,,,,,,,,,,,,,,,,LOG10-of bacterial load [23]: 1.65 ± 1.39; LOG10-of bacterial load ([24]; total dosage 120 mg/kg): 1.58 ± 2.45; LOG10-of bacterial load ([24]; total dosage 200 mg/kg): 0**
"C[C@@H](O)[C@H]1C(=O)N2C(C(=O)O)=C(SCCN=CN)C[C@H]12 [Imipenem, reference compound]",,,,,,,,,64,0.25,0.5,64,1,16,32,32,64,32,,,MIC ([19]; ATCCBAA1800): 128 µg/mL; MIC ([20]; ATCCBAA1793): 128 µg/mL
